# Legend:
# PDGFR = assay: Inhibition of PDGFR phosphorylation; type: biochemical
# Source text: (§1) FLT3 is a class III receptor tyrosine kinase and plays an important role in hematopoiesis and lymphocyte development. […] Wang et al found over 60% of 82 leukemia cell lines were FLT3 positive (Wang Y et al., (2006) Journal of Experimental Hematology 14(3): 446-449). […] Thus, the compounds of the disclosure with high inhibitory effect on FLT3 function may be good candidates for leukemia treatment.
# AKT = assay: Inhibition of AKT phosphorylation; type: biochemical
# Source text: as §1
# CT-26 WT cells = assay: Anti-tumor effect in CT-26 WT tumor-bearing BALB/c mice; type: in vivo; conditions: for Average tumor size: Anti-m-PD-1 10 mg/kg I.P., Compound A 40 mg/kg P.O.
# Method: (§2) CT-26 WT cells were maintained at 37° C. in 5% CO2 in RPMI 1640 medium (10-040-CV, Corning cellgro) supplemented with 10% FBS (10270-106, GIBCO) and used before the 10th subculture. At Day 0, 45 BALB/c female mice, 5-6 weeks old, were each subcutaneously injected with about 200.0 μL. of the CT-26 WT cell medium containing about 5×10^5 cells.
# (§3) At Day 9, 32 tumor-bearing mice were randomly allocated to four groups according to their tumor volumes, 8 mice per group. The rest were subject to euthanasia.
# (§4) The four groups of animals were administered with an anti-m-PD-1 antibody (BE0146, BioXcell) in PBS (21-040-CVR, BioXcell) at 1.0 mg/mL, Compound A in saline at 4.0 mg/mL, the anti-m-PD-1 antibody in combination with Compound A, and the control vehicle (saline), respectively, at doses shown in Table 1 below.
# (§5) Mice were observed every day for their physical conditions and activities, and mice body weight and tumor volume were measured every Tuesday, Thursday and Sunday. The tumor volume (V) was calculated as (length×width^2)/2.
# (§6) At Day 23, mice were subject to euthanasia, from which tumors were collected, weighed and photographed. Mice body weights, tumor sizes and tumor weights were analyzed using the t-test in SPSS, and group differences were deemed statistically significant when the p-value was 0.05 or less.
# Tumor growth inhibition (TGI) was calculated based on tumor weight or tumor volume. Further, Zheng-Jun Jin's Q value was calculated using the formula Q=EA+B/(EA+EB−EA×EB) to assess the combined effect of the anti-PD-1 antibody and Compound A, wherein EA+B, EA, and EB referred to the TGIs of the combination therapy, anti-PD-1 administration and Compound A administration, respectively. A Q value higher than 1.15 indicated a synergistic or additive effect.
# [1] = Body weight and survival of CT-26 WT tumor-bearing BALB/c mice; type: in vivo; conditions: for Average body weight: Anti-m-PD-1 10 mg/kg I.P., Compound A 40 mg/kg P.O.
# Method: as §2, §3, §4, §5, §6
# PI3K α isoform = PI3K α isoform (Homo sapiens, UniProt P42336)
# PI3K α isoform, sequence (P42336 whole entry, canonical isoform): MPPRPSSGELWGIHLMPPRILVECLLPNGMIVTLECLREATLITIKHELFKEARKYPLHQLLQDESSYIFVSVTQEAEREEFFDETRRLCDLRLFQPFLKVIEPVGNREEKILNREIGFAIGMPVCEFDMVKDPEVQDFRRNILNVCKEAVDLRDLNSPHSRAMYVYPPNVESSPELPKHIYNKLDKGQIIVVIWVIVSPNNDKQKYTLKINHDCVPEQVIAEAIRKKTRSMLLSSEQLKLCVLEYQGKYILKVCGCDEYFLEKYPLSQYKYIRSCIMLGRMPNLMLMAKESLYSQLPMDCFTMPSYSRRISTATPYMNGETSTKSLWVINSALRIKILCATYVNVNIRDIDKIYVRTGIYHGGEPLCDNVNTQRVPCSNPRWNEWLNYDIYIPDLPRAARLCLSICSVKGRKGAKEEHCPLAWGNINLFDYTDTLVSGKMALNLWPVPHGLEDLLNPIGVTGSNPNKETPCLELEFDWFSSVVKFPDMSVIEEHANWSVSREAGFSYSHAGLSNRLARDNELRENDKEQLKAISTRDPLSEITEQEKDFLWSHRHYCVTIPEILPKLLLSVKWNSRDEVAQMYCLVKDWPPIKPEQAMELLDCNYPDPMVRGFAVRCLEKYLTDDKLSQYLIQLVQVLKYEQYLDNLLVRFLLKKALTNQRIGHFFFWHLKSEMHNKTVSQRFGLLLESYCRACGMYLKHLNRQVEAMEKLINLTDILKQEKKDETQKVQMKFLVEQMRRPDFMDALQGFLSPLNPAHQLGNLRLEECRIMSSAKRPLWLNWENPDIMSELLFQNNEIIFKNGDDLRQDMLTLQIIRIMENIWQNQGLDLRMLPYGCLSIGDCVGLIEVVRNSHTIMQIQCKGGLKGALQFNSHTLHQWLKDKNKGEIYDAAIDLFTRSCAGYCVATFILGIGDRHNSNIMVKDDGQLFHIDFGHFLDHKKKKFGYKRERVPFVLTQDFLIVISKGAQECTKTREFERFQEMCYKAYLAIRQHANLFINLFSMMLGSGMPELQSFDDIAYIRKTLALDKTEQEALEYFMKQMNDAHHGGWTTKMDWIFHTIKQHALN
# PI3K α isoform, sequence (P27986 whole entry partner, canonical isoform): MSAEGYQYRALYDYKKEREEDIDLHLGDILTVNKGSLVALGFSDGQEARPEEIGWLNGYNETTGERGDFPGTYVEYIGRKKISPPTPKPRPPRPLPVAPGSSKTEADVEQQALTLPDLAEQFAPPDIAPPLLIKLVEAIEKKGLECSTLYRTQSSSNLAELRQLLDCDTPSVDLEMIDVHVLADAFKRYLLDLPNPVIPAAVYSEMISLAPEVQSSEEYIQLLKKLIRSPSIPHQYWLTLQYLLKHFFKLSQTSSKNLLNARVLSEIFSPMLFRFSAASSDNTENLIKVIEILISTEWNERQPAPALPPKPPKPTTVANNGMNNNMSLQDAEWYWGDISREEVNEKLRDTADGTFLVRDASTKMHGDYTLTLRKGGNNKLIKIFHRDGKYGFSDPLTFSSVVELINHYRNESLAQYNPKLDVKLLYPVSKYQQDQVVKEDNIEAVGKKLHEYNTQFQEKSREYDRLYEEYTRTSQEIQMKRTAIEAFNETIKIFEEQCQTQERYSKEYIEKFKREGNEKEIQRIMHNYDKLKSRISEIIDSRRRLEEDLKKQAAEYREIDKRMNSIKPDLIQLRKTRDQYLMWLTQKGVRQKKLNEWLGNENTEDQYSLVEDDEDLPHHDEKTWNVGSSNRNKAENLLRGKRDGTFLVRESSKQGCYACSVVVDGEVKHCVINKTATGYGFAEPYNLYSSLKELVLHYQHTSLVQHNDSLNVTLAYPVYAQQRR
# PI3K β isoform = PI3K β isoform (Homo sapiens, UniProt P42338)
# PI3K β isoform, sequence (P42338 whole entry, canonical isoform): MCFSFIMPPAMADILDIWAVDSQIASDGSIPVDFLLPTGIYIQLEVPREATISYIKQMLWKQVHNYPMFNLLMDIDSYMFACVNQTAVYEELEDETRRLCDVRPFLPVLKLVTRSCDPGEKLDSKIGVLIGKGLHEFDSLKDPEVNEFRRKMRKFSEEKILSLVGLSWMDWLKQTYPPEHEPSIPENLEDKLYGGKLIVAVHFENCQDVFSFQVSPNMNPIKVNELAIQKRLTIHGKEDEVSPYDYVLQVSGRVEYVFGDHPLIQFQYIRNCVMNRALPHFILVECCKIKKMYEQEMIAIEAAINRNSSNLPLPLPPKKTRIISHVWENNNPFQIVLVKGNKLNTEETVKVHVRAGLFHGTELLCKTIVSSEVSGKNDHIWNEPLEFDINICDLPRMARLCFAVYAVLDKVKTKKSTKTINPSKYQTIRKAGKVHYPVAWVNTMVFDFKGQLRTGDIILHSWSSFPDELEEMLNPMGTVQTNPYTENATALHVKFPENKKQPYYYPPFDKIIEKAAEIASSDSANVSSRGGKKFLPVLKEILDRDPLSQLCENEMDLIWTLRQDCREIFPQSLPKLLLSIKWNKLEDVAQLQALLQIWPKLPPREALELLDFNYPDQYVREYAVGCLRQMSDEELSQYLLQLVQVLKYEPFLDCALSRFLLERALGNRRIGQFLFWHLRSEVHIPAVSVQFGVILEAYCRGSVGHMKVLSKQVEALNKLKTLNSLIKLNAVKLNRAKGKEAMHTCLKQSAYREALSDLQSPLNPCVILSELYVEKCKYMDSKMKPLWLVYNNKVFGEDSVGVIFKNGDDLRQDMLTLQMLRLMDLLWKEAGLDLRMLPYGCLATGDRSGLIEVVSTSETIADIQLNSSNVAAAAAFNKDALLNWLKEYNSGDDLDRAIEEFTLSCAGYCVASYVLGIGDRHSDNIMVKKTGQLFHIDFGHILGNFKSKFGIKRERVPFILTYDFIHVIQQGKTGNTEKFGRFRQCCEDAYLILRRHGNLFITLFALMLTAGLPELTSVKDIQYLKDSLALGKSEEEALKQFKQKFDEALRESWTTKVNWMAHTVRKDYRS
# PI3K β isoform, sequence (P27986 whole entry partner, canonical isoform): as the sequence (P27986 whole entry partner, canonical isoform) above
# PI3K γ isoform = PI3K γ isoform (Homo sapiens, UniProt P48736); assay: PI3K isoform inhibition, γ isoform (method of CN104513254A)
# PI3K γ isoform, sequence (P48736 whole entry, canonical isoform): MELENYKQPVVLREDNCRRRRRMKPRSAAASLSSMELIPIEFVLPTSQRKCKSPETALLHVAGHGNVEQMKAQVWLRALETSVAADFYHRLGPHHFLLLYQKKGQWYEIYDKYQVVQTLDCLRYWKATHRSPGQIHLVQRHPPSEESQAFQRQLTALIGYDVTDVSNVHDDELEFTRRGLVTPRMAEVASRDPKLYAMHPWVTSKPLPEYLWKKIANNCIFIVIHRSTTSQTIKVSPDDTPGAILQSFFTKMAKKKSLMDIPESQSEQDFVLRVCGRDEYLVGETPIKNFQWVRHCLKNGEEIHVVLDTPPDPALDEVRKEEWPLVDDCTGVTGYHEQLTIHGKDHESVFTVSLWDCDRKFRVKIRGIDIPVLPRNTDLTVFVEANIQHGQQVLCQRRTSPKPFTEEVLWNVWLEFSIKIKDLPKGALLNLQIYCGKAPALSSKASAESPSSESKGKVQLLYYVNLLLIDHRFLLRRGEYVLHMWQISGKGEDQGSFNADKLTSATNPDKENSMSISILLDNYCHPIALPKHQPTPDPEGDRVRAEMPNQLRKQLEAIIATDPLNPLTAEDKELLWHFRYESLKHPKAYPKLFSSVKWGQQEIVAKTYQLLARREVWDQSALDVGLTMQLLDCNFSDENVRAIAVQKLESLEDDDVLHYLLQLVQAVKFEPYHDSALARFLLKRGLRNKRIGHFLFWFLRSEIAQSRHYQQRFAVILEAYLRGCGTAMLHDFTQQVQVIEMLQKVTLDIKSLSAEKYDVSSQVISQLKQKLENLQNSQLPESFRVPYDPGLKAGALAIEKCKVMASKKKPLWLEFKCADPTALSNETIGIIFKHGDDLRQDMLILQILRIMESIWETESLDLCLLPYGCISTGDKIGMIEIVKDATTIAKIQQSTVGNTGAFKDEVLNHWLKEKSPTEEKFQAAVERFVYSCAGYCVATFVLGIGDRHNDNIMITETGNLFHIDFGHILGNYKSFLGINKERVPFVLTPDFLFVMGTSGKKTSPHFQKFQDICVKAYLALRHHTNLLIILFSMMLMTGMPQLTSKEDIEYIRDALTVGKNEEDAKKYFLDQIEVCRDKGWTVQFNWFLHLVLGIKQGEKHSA
# [2] = human, in vivo; cited from earlier work
compound,measurement,setting,value
c1cnc2ccc(Nc3nc(NC4CC4)c4nc[nH]c4n3)cc2c1 [Compound A],EC50,PDGFR,~1 µM
same,EC50,AKT,~0.1 µM
same,Average tumor size,CT-26 WT cells; Day 9 (allocation),176.94 mm^3
same,Average tumor size,CT-26 WT cells; Day 10,272.49 mm^3
same,Average tumor size,CT-26 WT cells; Day 12,492.26 mm^3
same,Average tumor size,CT-26 WT cells; Day 14,672.51 mm^3
same,Average tumor size,CT-26 WT cells; Day 16,876.22 mm^3
same,Average tumor size,CT-26 WT cells; Day 18,1099.45 mm^3
same,Average tumor size,CT-26 WT cells; Day 20,1348.89 mm^3
same,Average tumor size,CT-26 WT cells; Day 22,1698.25 mm^3
same,Tumor volume based TGI,CT-26 WT cells; Day 23,19.35%
same,Tumor weight based TGI,CT-26 WT cells; Day 23,31.71%
same,Average tumor size,CT-26 WT cells; Day 23,1870.89 mm^3
same,"Tumor weight, Average","CT-26 WT cells; group average at Day 23, 8 mice",1.93 g
same,"Tumor weight, Mouse no. 1","CT-26 WT cells; individual tumor isolated at Day 23, Mouse no. 1",1.14 g
same,"Tumor weight, Mouse no. 2","CT-26 WT cells; individual tumor isolated at Day 23, Mouse no. 2",2.11 g
same,"Tumor weight, Mouse no. 3","CT-26 WT cells; individual tumor isolated at Day 23, Mouse no. 3",2.11 g
same,"Tumor weight, Mouse no. 4","CT-26 WT cells; individual tumor isolated at Day 23, Mouse no. 4",0.89 g
same,"Tumor weight, Mouse no. 5","CT-26 WT cells; individual tumor isolated at Day 23, Mouse no. 5",1.68 g
same,"Tumor weight, Mouse no. 6","CT-26 WT cells; individual tumor isolated at Day 23, Mouse no. 6",2.16 g
same,"Tumor weight, Mouse no. 7","CT-26 WT cells; individual tumor isolated at Day 23, Mouse no. 7",2.73 g
same,"Tumor weight, Mouse no. 8","CT-26 WT cells; individual tumor isolated at Day 23, Mouse no. 8",2.64 g
same,Average body weight,[1]; Day 9 (allocation),15.59 g
same,Average body weight,[1]; Day 10,15.16 g
same,Average body weight,[1]; Day 12,15.86 g
same,Average body weight,[1]; Day 14,15.91 g
same,Average body weight,[1]; Day 16,16.46 g
same,Average body weight,[1]; Day 18,16.75 g
same,Average body weight,[1]; Day 20,17.01 g
same,Average body weight,[1]; Day 22,17.72 g
same,Mice weight with the tumor weight deducted,[1]; Day 23,16.22 g
same,Average body weight,[1]; Day 23,18.15 g
same,"EC50, PI3K α isoform inhibition",PI3K α isoform,μM level
same,"EC50, PI3K β isoform inhibition",PI3K β isoform,μM level
same,"EC50, PI3K γ isoform inhibition",PI3K γ isoform,μM level
Ipilimumab,Patients who experienced immune-related adverse effects,[2],64%

# — patent US20230201207A1, “COMBINATION CANCER THERAPY USING N2-QUINOLINE OR ISOQUINOLINE SUBSTITUTED PURINE DERIVATIVES” (SHANGHAI HUAYU BIOTECHNOLOGY CO., LTD., priority 2020, published 2023)
